Measured values: US8765666B2, “Adenovirus dodecahedron particles for delivery of pharmaceutical agents” (Instytut Bio chemii i Biofizki PAN, priority 2009, dated 2014)
Structures can show the parent of a compound that is named as a salt.

Tested on: HeLa cells
Experiment: MTT cytotoxicity test
Conditions: results not shown
Protocol: In the test, the ability of live cells to reduce the soluble yellow tetrazolium salt (MTT) to blue formazan crystals is used. […] After 3 hours, foetal bovine serum was added to a final concentration of 10%. After various incubation times at 37° C., the incubation medium was removed and 100 μL EMEM containing 0.5 mg/mL MTT (Sigma) was added. The plates were incubated according to the manufacturer's instructions; optical density measurements were carried out using an HTi reader (Biotek, VT Winooski, USA). The number of live cells was calculated according to the protocol (Mosmann, 1983).

## Cc1c(N)nc(C(CC(N)=O)NCC(N)C(N)=O)nc1C(=O)NC(C(=O)NC(C)C(O)C(C)C(=O)NC(C(=O)NCCc1nc(-c2nc(C(=O)NCCCNCCCCN)cs2)cs1)C(C)O)C(OC1OC(CO)C(O)C(O)C1OC1OC(CO)C(O)C(OC(N)=O)C1O)c1c[nH]cn1 (stereo not shown) [BLM, Bleomycin A5 hydrochloride]
  free BLM concentration giving cell mortality similar to Dd-BLM: 8 µM
